Source: ChEMBL document CHEMBL5543094, “Exploration of P1 and P4 modifications of nirmatrelvir: Design, synthesis, biological evaluation, and X-ray structural studies of SARS-CoV-2 Mpro inhibitors” (Eur J Med Chem, 2024)

Experiments:
Type in all cases: functional, organism-based
SARS-CoV-2 [1] = test: Antiviral activity against SARS-CoV-2 Wuhan 5-2N variant infected in African green monkey Vero E6 cells measured 3 days post infection by WST-8 assay; conditions: Severe acute respiratory syndrome coronavirus 2, Wuhan 5-2N, Vero C1008, 72 h
SARS-CoV-2 [2] = test: Antiviral activity against SARS-CoV-2 Beta TY8 variant infected in African green monkey Vero E6 cells measured 3 days post infection by WST-8 assay; conditions: Severe acute respiratory syndrome coronavirus 2, Beta TY8, Vero C1008, 72 h
SARS-CoV-2 [3] = test: Antiviral activity against SARS-CoV-2 Delta K1734 variant infected in African green monkey Vero E6 cells measured 3 days post infection by WST-8 assay; conditions: Severe acute respiratory syndrome coronavirus 2, Delta K1734, Vero C1008, 72 h
SARS-CoV-2 [4] = test: Antiviral activity against SARS-CoV-2 Gamma TY7 variant infected in African green monkey Vero E6 cells measured 3 days post infection by WST-8 assay; conditions: Severe acute respiratory syndrome coronavirus 2, Gamma TY7, Vero C1008, 72 h
SARS-CoV-2 [5] = test: Antiviral activity against SARS-CoV-2 Alpha QK002 variant infected in African green monkey Vero E6 cells measured 3 days post infection by WST-8 assay; conditions: Severe acute respiratory syndrome coronavirus 2, Alpha QK002, Vero C1008, 72 h
SARS-CoV-2 [6] = test: Antiviral activity against SARS-CoV-2 Omicron 929 variant infected in African green monkey Vero E6 cells measured 7 days post infection by WST-8 assay; conditions: Severe acute respiratory syndrome coronavirus 2, Omicron 929, Vero C1008, 168 h

SMILES | EC50 (SARS-CoV-2 [1]) [nM] | EC50 (SARS-CoV-2 [2]) [nM] | EC50 (SARS-CoV-2 [3]) [nM] | EC50 (SARS-CoV-2 [4]) [nM] | EC50 (SARS-CoV-2 [5]) [nM] | EC50 (SARS-CoV-2 [6]) [nM]
CC(C)(C)[C@H](NC(=O)C(Cl)(Cl)Cl)C(=O)N1C[C@H]2[C@@H]([C@H]1C(=O)N[C@H](C#N)C[C@@H]1CCCNC1=O)C2(C)C | 700 | 2400 | 600 | 2000 | 800 | 4000
CCC(CC)COC(=O)[C@H](C)N[P@](=O)(OC[C@H]1O[C@@](C#N)(c2ccc3c(N)ncnn23)[C@H](O)[C@@H]1O)Oc1ccccc1 | 3800 | 2800 | 2900 | 2600 | 3500 | 4200
CC(C)(C)[C@H](NC(=O)C(F)(F)F)C(=O)N1C[C@H]2[C@@H]([C@H]1C(=O)N[C@H](C#N)C[C@@H]1CCNC1=O)C2(C)C | 3000 | 3700 | 2900 | 4000 | 2500 | 3100
